Values belong to the molecule of their own block, whether it stands above or below them.
Experiments:
Fibroblasts = experiment: Procollagen synthesis (type I C-peptide ELISA) in fibroblast culture; format: cell-based, human; conditions: 4 mM, 48 hours, mean ± SD
Description: A fibroblast cell culture model was used to assess the ability of the polysaccharide from Porphyridium to exert an effect on procollagen synthesis. Fibroblasts are the main source of the extracelluar matrix peptides, including the structural protein collagen. Procollagen is a large peptide synthesized by fibroblasts in the dermal layer of the skin and is the precursor for collagen. As the peptide is processed to form a mature collagen protein, the propeptide portion is cleaved off (type I C-peptide). Both the mature collagen protein and the type I C-peptide fragment are then released into the extracellular environment. As collagen is synthesized the type I C-peptide fragment accumulates into the tissue culture medium. Since there is a 1:1 stoichiometric ratio between the two parts of the procollagen peptide, assaying for type I C-peptide reflects the amount of collagen synthesized. […]
A series of type I C-peptide standards was prepared ranging from 0 ng/ml to 640 ng/ml. […] After the incubation 100 μl of stop solution (1 N sulfuric acid) was added to each well and the plate was read using a microplate reader at 450 nm.
To quantify the amount of procollagen present, a standard curve was generated using known concentrations of procollagen. […] Absorbance values for the test and positive control samples was used to determine the amount of procollagen present. […]

[1] = tested on: Porphyridium sp. and Porphyridium cruentum; experiment: Antibiotic sensitivity on agar plates; format: cell-based; conditions: 14 days
Procedure: Approximately […] cells (300 ul of 1.5×10^5 cells per ml) of Porphyridium sp. and Porphyridium cruentum cultures in liquid ATCC 1495 ASW media were plated onto ATCC 1495 ASW agar plates (1.5% agar). The plates contained varying amounts of zeocin, sulfometuron, hygromycin and spectinomycin. The plates were put under constant artificial fluorescent light of approximately 480 lux. After 14 days, plates were checked for growth.

[2] = tested on: MatTek EpiDerm® skin model (normal human-derived epidermal keratinocytes); experiment: TT dimer-UV exposure assay in MatTek EpiDerm skin model; format: cell-based; conditions: 1 mM, UVB 300 mJ/cm^2, mean ± SD
Procedure: TT dimer-UV exposure assay: The testing system used for this assay was the MatTek EpiDerm®, a skin model that consists of normal human-derived epidermal keratinocytes cultured to form a multilayered, highly differentiated model of the human epidermis. For this study, the tissues were treated topically overnight with either test materials, 1 mM Trolox (positive control), or left untreated (negative control). On the following day, the tissues were exposed to UVB (300 mJ/cm^2). Following the exposures the DNA was extracted from the EpiDerm tissues and assayed for thymine dimer content. Samples of the DNA were immobilized on a solid membrane support and incubated with an antibody that recognizes thymidine dimers in double stranded DNA. The primary antibody was detected using a secondary antibody conjugated to an alkaline phosphatase enzyme followed by the addition of a substrate that the alkaline phosphatase enzyme uses to generate a chemiluminescent signal. The light generated by this reaction was captured using film with the intensity of the light signal being proportional to the amount of the thymine dimers present in the sample. Test material BM was Porphyridium sp. biomass that had been homogenized with a Microfluidizer® twice and then lyophilized. […] Extracted DNA was quantified via a fluorometric assay. […]

hyaluronidase = experiment: Anti-hyaluronidase assay (bHA-coated 96-well plate); format: biochemical; conditions: 0.1%
Procedure: Biotinylated hyaluronic acid (bHA) was covalently attached to the wells of a 96-well plate. Samples containing hyaluronidase and various test materials were then added to the wells. The hyaluronidase degrades the bound hyaluronic acid, resulting in a decrease in the amount of biotin covalently linked to the well plate. At the end of the incubation period the reaction was stopped and the well plate was washed to remove the hyaluronidase. The remaining bHA was detected using an avidin bound peroxidase enzyme. When an appropriate substrate is added, the peroxidase enzyme generated a color signal in proportion to the amount of bHA. The color signal was measured spectrophotometrically, and was inversely proportional to the amount of hyaluronidase activity in the sample. […] Also see Frost, G. I., Stern, R. A Microtiter-Based Assay for Hyaluronidase Activity Not Requiring Specialized Reagents. Analytical Biochemistry 251, 263-269: 1997. […]
During the 30 minute incubation, an avidin/biotin-peroxidase complex was prepared in 10.5 ml of PBS containing 0.1% Tween 20 using an ABC kit. […] The plate was incubated in the dark for 10-20 minutes and then read at 460 nm using a plate reader. The substrate solution was also added to three wells that were not treated with test materials or the avidin/biotin-peroxidase solution and were used as a blank for the absorbance measurements. […]

Molecule: CCCC(=O)[O-].[Na+] [Na Butyrate, sodium butyrate]
Type I C-Peptide (Fibroblasts): 1425 ± 81 ng/mL

Molecule: CN[C@@H]1[C@H](O)[C@H](NC)[C@H]2O[C@@]3(O)C(=O)C[C@@H](C)O[C@H]3O[C@@H]2[C@H]1O [Specinomycin]
Growth ([1]; 100.0 ug/ml): + + + + | Growth ([1]; 250.0 ug/ml): + + + + | Growth ([1]; 750.0 ug/ml): + + + +

Molecule: Cc1c(C)c2c(c(C)c1O)CCC(C)(C(=O)O)O2 (stereo not drawn) [Trolox]
Optical Density (thymidine dimer) [2]: 107 ± 1 optical density units

Percent Inhibition (hyaluronidase): 74%
Molecule: heparin
